Experimental data reported in the supplement of paper PMC13207355.

Assays:
Conditions in all cases: exposure time: 72 h
[1] = test system: E21 (patient-derived glioblastoma stem cells of mesenchymal subtype); assay: phenotypic distance (Euclidean, principal components) from DMSO controls (arbitrary units); higher = stronger morphological change
[2] = test system: E31 (patient-derived glioblastoma stem cells of proneural subtype); assay: as above
[3] = test system: E13 (patient-derived glioblastoma stem cells of classical subtype); assay: as above
[4] = test system: E57 (patient-derived glioblastoma stem cells of mesenchymal subtype); assay: as above
[5] = test system: E28 (patient-derived glioblastoma stem cells of classical subtype); assay: as above
[6] = test system: E34 (patient-derived glioblastoma stem cells of proneural subtype); assay: as above
[7] = test system: FT3469 (normal neural stem cell line); assay: as above
[8] = test system: E21; assay: surviving fraction (nuclei count normalised to DMSO); higher = more cells surviving (less toxic)
[9] = test system: E31; assay: as above
[10] = test system: E13; assay: as above
[11] = test system: E57; assay: as above
[12] = test system: E28; assay: as above
[13] = test system: E34; assay: as above
[14] = test system: FT3469; assay: as above
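Wherever phenotypic distance (Euclidean, principal components) from DMSO controls is given: cell Painting imaging in 384-well plates, CellProfiler features reduced to at least 20 principal components, Euclidean distance versus same-plate DMSO vehicle wells (0.1% v/v), median over six images per well.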
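Wherever surviving fraction (nuclei count normalised to DMSO) is given: nuclei counted by high-content imaging of Hoechst-stained cells in laminin-coated 384-well plates, relative to 0.1% DMSO vehicle wells, with staurosporine as cell-death control.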

COc1c(N2CCNC(C)C2)c(F)cc2c(=O)c(C(=O)O)cn(C3CC3)c12 (stereo not drawn) [Gatifloxacin]
Conditions	phenotypic distance	surviving fraction
[1], 4.1 nM	1	–
[1], 12.3 nM	0.609	–
[1], 37 nM	0.741	–
[1], 111.1 nM	0.873	–
[1], 333.3 nM	0.581	–
[1], 1000 nM	1	–
[1], 3000 nM	0.84	–
[2], 4.1 nM	0.659	–
[2], 12.3 nM	2.43	–
[2], 37 nM	0.809	–
[2], 111.1 nM	0.741	–
[2], 333.3 nM	0.52	–
[2], 1000 nM	0.474	–
[2], 3000 nM	0.691	–
[3], 4.1 nM	0.675	–
[3], 12.3 nM	0.638	–
[3], 37 nM	0.734	–
[3], 111.1 nM	0.5	–
[3], 333.3 nM	0.838	–
[3], 1000 nM	0.825	–
[3], 3000 nM	0.702	–
[4], 4.1 nM	0.413	–
[4], 12.3 nM	0.404	–
[4], 37 nM	0.488	–
[4], 111.1 nM	0.447	–
[4], 333.3 nM	0.584	–
[4], 1000 nM	0.465	–
[4], 3000 nM	0.475	–
[5], 4.1 nM	0.347	–
[5], 12.3 nM	0.661	–
[5], 37 nM	0.66	–
[5], 111.1 nM	0.527	–
[5], 333.3 nM	0.675	–
[5], 1000 nM	0.514	–
[5], 3000 nM	0.819	–
[6], 4.1 nM	0.671	–
[6], 12.3 nM	0.619	–
[6], 37 nM	0.973	–
[6], 111.1 nM	0.498	–
[6], 333.3 nM	0.426	–
[6], 1000 nM	0.62	–
[6], 3000 nM	0.52	–
[7], 4.1 nM	1.03	–
[7], 12.3 nM	0.624	–
[7], 37 nM	0.658	–
[7], 111.1 nM	0.568	–
[7], 333.3 nM	0.713	–
[7], 1000 nM	0.561	–
[7], 3000 nM	1.24	–
[8], 4.1 nM	–	0.949
[8], 12.3 nM	–	0.874
[8], 37 nM	–	0.875
[8], 111.1 nM	–	0.802
[8], 333.3 nM	–	0.988
[8], 1000 nM	–	0.814
[8], 3000 nM	–	0.929
[9], 4.1 nM	–	1.03
[9], 12.3 nM	–	0.99
[9], 37 nM	–	0.946
[9], 111.1 nM	–	0.898
[9], 333.3 nM	–	1.01
[9], 1000 nM	–	1.04
[9], 3000 nM	–	1.24
[10], 4.1 nM	–	0.802
[10], 12.3 nM	–	0.892
[10], 37 nM	–	0.946
[10], 111.1 nM	–	0.909
[10], 333.3 nM	–	1.06
[10], 1000 nM	–	0.806
[10], 3000 nM	–	0.89
[11], 4.1 nM	–	0.966
[11], 12.3 nM	–	1.04
[11], 37 nM	–	0.993
[11], 111.1 nM	–	1.05
[11], 333.3 nM	–	1.06
[11], 1000 nM	–	1.05
[11], 3000 nM	–	1.05
[12], 4.1 nM	–	0.883
[12], 12.3 nM	–	0.852
[12], 37 nM	–	0.951
[12], 111.1 nM	–	0.859
[12], 333.3 nM	–	0.769
[12], 1000 nM	–	0.982
[12], 3000 nM	–	1.01
[13], 4.1 nM	–	0.932
[13], 12.3 nM	–	0.945
[13], 37 nM	–	1.06
[13], 111.1 nM	–	0.967
[13], 333.3 nM	–	1.09
[13], 1000 nM	–	0.908
[13], 3000 nM	–	0.955
[14], 4.1 nM	–	0.737
[14], 12.3 nM	–	0.928
[14], 37 nM	–	0.867
[14], 111.1 nM	–	0.774
[14], 333.3 nM	–	0.957
[14], 1000 nM	–	0.995
[14], 3000 nM	–	0.79
